How the values were obtained:
Experiment in all cases: relative viability (nuclei count vs DMSO), 5 days (fraction); higher = more cells survive
NCI-H2085 = test system: NCI-H2085
Outline: (§1)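 Each reported value is a median over duplicate plates. It expresses relative viability: treated-well nuclei count divided by vehicle-well nuclei count. Lung cancer cell lines in 1536-well plates were dosed by pin tool a day after seeding, alone with one drug or with a fixed anchor-drug dose plus five library-drug doses (not always all listed) in √10 steps, and nuclei were counted after 5 days.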

NCI-H358 = test system: NCI-H358
Outline: as §1

SW 1573 = test system: SW 1573
Outline: as §1

201T = test system: 201T
Outline: as §1

LCLC-97TM1 = test system: LCLC-97TM1
Outline: as §1

NCI-H1975 = test system: NCI-H1975
Outline: as §1

HCC-44 = test system: HCC-44
Outline: as §1

NCI-H2342 = test system: NCI-H2342
Outline: as §1

H3255 = test system: H3255
Outline: as §1

BEN = test system: BEN
Outline: as §1

NCI-H1437 = test system: NCI-H1437
Outline: as §1

NCI-H1666 = test system: NCI-H1666
Outline: as §1

NCI-H647 = test system: NCI-H647
Outline: as §1

EPLC-272H = test system: EPLC-272H
Outline: as §1

PC-3 [JPC-3] = test system: PC-3 [JPC-3]
Outline: as §1

LU99A = test system: LU99A
Outline: as §1

NCI-H1395 = test system: NCI-H1395
Outline: as §1

NCI-H2126 = test system: NCI-H2126
Outline: as §1

COR-L 105 = test system: COR-L 105
Outline: as §1

LOU-NH91 = test system: LOU-NH91
Outline: as §1

HCC-827 = test system: HCC-827
Outline: as §1

EKVX = test system: EKVX
Outline: as §1

NCI-H2087 = test system: NCI-H2087
Outline: as §1

HOP-62 = test system: HOP-62
Outline: as §1

Structure (SMILES): CC(C)Oc1cc(Nc2nc(N[C@@H](C)c3ccc(F)cn3)ncc2Cl)n[nH]1 [AZ23] + CCNC(=O)c1noc(-c2cc(C(C)C)c(O)cc2O)c1-c1ccc(CN2CCOCC2)cc1 [Luminespib] (partner 0.01 µM)
- relative viability (NCI-H2085; first compound 0.01 µM): 0.321
- relative viability (NCI-H2085; first compound 0.03162 µM): 0.422
- relative viability (NCI-H2085; first compound 0.3162 µM): 0.463
- relative viability (NCI-H358; first compound 0.01 µM): 0.416
- relative viability (NCI-H358; first compound 0.03162 µM): 0.395
- relative viability (NCI-H358; first compound 0.3162 µM): 0.349
- relative viability (SW 1573; first compound 0.01 µM): 0.189
- relative viability (SW 1573; first compound 0.03162 µM): 0.164
- relative viability (SW 1573; first compound 0.3162 µM): 0.227
- relative viability (201T; first compound 0.01 µM): 1.15
- relative viability (201T; first compound 0.03162 µM): 1.02
- relative viability (201T; first compound 0.3162 µM): 1.02
- relative viability (LCLC-97TM1; first compound 0.01 µM): 0.846
- relative viability (LCLC-97TM1; first compound 0.03162 µM): 0.783
- relative viability (LCLC-97TM1; first compound 0.3162 µM): 0.796
- relative viability (NCI-H1975; first compound 0.01 µM): 0.234
- relative viability (NCI-H1975; first compound 0.03162 µM): 0.195
- relative viability (NCI-H1975; first compound 0.3162 µM): 0.223
- relative viability (HCC-44; first compound 0.01 µM): 0.863
- relative viability (HCC-44; first compound 0.03162 µM): 1.22
- relative viability (HCC-44; first compound 0.3162 µM): 1.22
- relative viability (NCI-H2342; first compound 0.01 µM): 0.658
- relative viability (NCI-H2342; first compound 0.03162 µM): 0.679
- relative viability (NCI-H2342; first compound 0.3162 µM): 0.718
- relative viability (H3255; first compound 0.01 µM): 0.574
- relative viability (H3255; first compound 0.03162 µM): 0.888
- relative viability (H3255; first compound 0.3162 µM): 0.854
- relative viability (BEN; first compound 0.01 µM): 0.287
- relative viability (BEN; first compound 0.03162 µM): 0.378
- relative viability (BEN; first compound 0.3162 µM): 0.243
- relative viability (NCI-H1437; first compound 0.01 µM): 1.29
- relative viability (NCI-H1437; first compound 0.03162 µM): 1.25
- relative viability (NCI-H1437; first compound 0.3162 µM): 1.2
- relative viability (NCI-H1666; first compound 0.01 µM): 1.05
- relative viability (NCI-H1666; first compound 0.03162 µM): 1.34
- relative viability (NCI-H1666; first compound 0.3162 µM): 0.943
- relative viability (NCI-H647; first compound 0.01 µM): 0.125
- relative viability (NCI-H647; first compound 0.03162 µM): 0.107
- relative viability (NCI-H647; first compound 0.3162 µM): 0.149
- relative viability (EPLC-272H; first compound 0.01 µM): 0.15
- relative viability (EPLC-272H; first compound 0.03162 µM): 0.203
- relative viability (EPLC-272H; first compound 0.3162 µM): 0.551
- relative viability (PC-3 [JPC-3]; first compound 0.01 µM): 0.581
- relative viability (PC-3 [JPC-3]; first compound 0.03162 µM): 0.582
- relative viability (PC-3 [JPC-3]; first compound 0.3162 µM): 0.637
- relative viability (LU99A; first compound 0.01 µM): 0.217
- relative viability (LU99A; first compound 0.03162 µM): 0.188
- relative viability (LU99A; first compound 0.3162 µM): 0.298
- relative viability (NCI-H1395; first compound 0.03162 µM): 0.658
- relative viability (NCI-H1395; first compound 0.3162 µM): 0.771
- relative viability (NCI-H2126; first compound 0.01 µM): 0.954
- relative viability (NCI-H2126; first compound 0.03162 µM): 1
- relative viability (NCI-H2126; first compound 0.3162 µM): 0.875
- relative viability (COR-L 105; first compound 0.01 µM): 0.83
- relative viability (COR-L 105; first compound 0.03162 µM): 0.872
- relative viability (COR-L 105; first compound 0.3162 µM): 0.731
- relative viability (LOU-NH91; first compound 0.01 µM): 0.387
- relative viability (LOU-NH91; first compound 0.03162 µM): 0.349
- relative viability (LOU-NH91; first compound 0.3162 µM): 0.324
- relative viability (HCC-827; first compound 0.01 µM): 0.372
- relative viability (HCC-827; first compound 0.03162 µM): 0.74
- relative viability (HCC-827; first compound 0.3162 µM): 0.649
- relative viability (EKVX; first compound 0.01 µM): 0.861
- relative viability (EKVX; first compound 0.03162 µM): 0.84
- relative viability (EKVX; first compound 0.3162 µM): 0.924
- relative viability (NCI-H2087; first compound 0.01 µM): 0.151
- relative viability (NCI-H2087; first compound 0.03162 µM): 0.171
- relative viability (NCI-H2087; first compound 0.3162 µM): 0.169
- relative viability (HOP-62; first compound 0.01 µM): 0.841
- relative viability (HOP-62; first compound 0.03162 µM): 0.981
- relative viability (HOP-62; first compound 0.3162 µM): 1.01

Reference: the supplement of paper PMC10307832
